Reference: patent US7176219B2, “Salts of quinuclidine derivative” (priority 2005, dated 2007)

What was measured:
[1] = Evaluation of hygroscopicity (dynamic steam adsorption, weight change); type: physicochemical; settings: for Deliquescence during water absorption measurement: 5–95% relative humidity; for Weight Change (%): within the range 5–95% relative humidity
Experimental: A sample (about 5 mg) was placed in a purpose-made quartz holder, and the sample weight at the respective humidity was continuously measured and recorded in the following conditions. The apparatus including data processing was operated according to the method and procedure directed in each device. (Apparatus: dynamic steam adsorption measuring apparatus DVS Advantage, made by SMS)

[2] = Evaluation of stability (1): forced degradation test, impurities by LC; settings: for Change from Impurity Amt. before Storage (%), Condition 3 / Change from Impurity Amt. before Storage (%), Condition 2: 25° C., 5 days; for Change from Impurity Amt. before Storage (%), Condition 3: NUV (near ultraviolet ray) irradiated; for Change from Impurity Amt. before Storage (%), Condition 3 / Change from Impurity Amt. before Storage (%), Condition 1: tightly closed; for Change from Impurity Amt. before Storage (%), Condition 2: relative humidity 93%, open; for Change from Impurity Amt. before Storage (%), Condition 1: 120° C., 24 hours
Experimental: A sample after storage was dissolved in 1 mL of MeOH and used as a sample solution. The sample solution was diluted 100 times with MeOH and used as a standard solution. Impurities contained in the sample solution was quantitatively analyzed using the standard solution. In this determination, the apparatus including data processing was operated according to the method and procedure directed in each device. (Apparatus: LC-MSD 1100 series, made by Agilent)

[3] = Evaluation of stability (2): stress testing, impurities by LC, UV at 210 nm; type: physicochemical
Experimental: A sample (about 5 mg) was weighed in a glass mess-flask of 10 mL and applied to a stress testing in the following storage conditions. • Condition 1: 5° C.—shading—tightly closed • Condition 2: 40° C.—relative humidity 75%—open • Condition 3: 60° C.—shading—tightly closed • Condition 4: 80° C.—shading—tightly closed • Condition 5: 25° C.—D65 (1000 lux)—tightly closed
Chemical stability: After storage, MeOH was placed in the mess-flask containing the sample up to the level of the marked line, and the resulting solution was used as a sample solution. The sample solution was diluted 100 times with MeOH to prepare a standard solution, which was used in determination of impurities contained in the sample solution. Detection of the impurities was performed by means of UV at 210 nm. […] (Apparatus: LC-MSD 1100 series, made by Agilent)

[4] = Hygroscopicity and long-term storage of the known hydrochloride (disclosure section); type: physicochemical
[5] = target: muscarinic M3 receptors (Homo sapiens, UniProt P20309); settings: made public in Patent document 1 (EP 0 801 067); cited from earlier work
[6] = target: T1, muscarinic M3 receptors (Cavia porcellus, UniProt H0W1Z3); experiment: Functional affinity estimate for muscarinic M3 receptors in bladders (carbachol-induced intracellular Ca2+ change in bladder smooth muscle cells); type: cell-based, guinea pig
T1 construct: Smooth muscle cells were isolated from guinea pig bladders; from tissue; host or cells: smooth muscle cells freshly isolated from guinea pig bladder
Experimental: Below, the method is described in brief.
Smooth muscle cells were isolated from guinea pig bladders from which the […] had been removed, loaded with a calcium-sensitive fluorescent dye Fura2 and suspended in phenol red-free Hanks' buffer solution supplemented with 20 mM HEPES (pH 7.4) and 0.1% bovine serum albumin. An aliquot of cell suspension (490 μL) was continuously stirred, kept at 28° C. and monitored for the ratio of fluorescence (500 nm) at 340 nm excitation to that at 380 nm excitation. To each aliquot, 5 μL of test compound and carbachol solutions were serially added with a 2 minute interval, and the peak increase in the ratio over the level just before stimulation was used in data analysis.

[7] = test system: carbachol-evoked bladder contraction; experiment: Inhibitory effects on carbachol-evoked bladder contraction in anesthetized mice; type: in vivo; settings: anesthetized female mice, i.v., carbachol 10 μg/kg, intravesical pressure
Experimental: The method for determination of inhibitory effects of test compounds on bladder contraction is described as follows.
Female mice, weighing 30 to 35 g, were anesthetized with a sub-lethal dose (75 mg/kg, i.v.) of sodium pentobarbital and placed supine on a heating pad to maintain the body temperature. A polyethylene catheter (PE10) was cannulated to the bladder via the urethra and secured by purse-string suture at the external urethral opening. Another catheter was inserted into the femoral vein for injections of drug solutions at a […]. The bladder catheter was connected to a pressure transducer through a three-way stopcock valve. The bladder was emptied by drainage of urine through the catheter, and then distended with about 100 μL of physiological saline, and the intravesical pressure was measured.
After intravesical pressure stabilization, the muscarinic agonist carbachol (10 μg/kg) was administered repeatedly with an interval of 15 minutes or longer. By this means, bladder contractions occurred in a reproducible manner over 2 hours without deterioration of physical conditions. After three responses to carbachol were obtained, a test compound injection was followed by carbachol administration 10 minutes later and this procedure was repeated with increasing doses of the test compound. In four or five mice per test compound, the percent inhibition of means of prior drug responses was obtained and the dose of test compound required for 50% inhibition (ID50) was estimated by the linear regression analysis. Mice showing rhythmic bladder constriction were not used for the data analysis.

[8] = 25° C., listed as Compound A hydrochloride, hydrochloride
[9] = Condition 1: 5° C., shading, tightly closed, 1 month
[10] = Condition 1: 5° C., shading, tightly closed, 2 months
[11] = Condition 1: 5° C., shading, tightly closed, 2 weeks
[12] = Condition 2: 40° C., relative humidity 75%, open, 1 month
[13] = Condition 2: 40° C., relative humidity 75%, open, 2 months
[14] = Condition 2: 40° C., relative humidity 75%, open, 2 weeks
[15] = Condition 3: 60° C., shading, tightly closed, 1 month
[16] = Condition 3: 60° C., shading, tightly closed, 2 months
[17] = Condition 3: 60° C., shading, tightly closed, 2 weeks
[18] = Condition 4: 80° C., shading, tightly closed, 1 month
[19] = Condition 4: 80° C., shading, tightly closed, 2 months
[20] = Condition 4: 80° C., shading, tightly closed, 2 weeks
[21] = Condition 5: 25° C., D65 (1000 lux), tightly closed, 1 month
[22] = Condition 5: 25° C., D65 (1000 lux), tightly closed, 2 months
[23] = Condition 5: 25° C., D65 (1000 lux), tightly closed, 2 weeks

T1 sequence (H0W1Z3 1-590): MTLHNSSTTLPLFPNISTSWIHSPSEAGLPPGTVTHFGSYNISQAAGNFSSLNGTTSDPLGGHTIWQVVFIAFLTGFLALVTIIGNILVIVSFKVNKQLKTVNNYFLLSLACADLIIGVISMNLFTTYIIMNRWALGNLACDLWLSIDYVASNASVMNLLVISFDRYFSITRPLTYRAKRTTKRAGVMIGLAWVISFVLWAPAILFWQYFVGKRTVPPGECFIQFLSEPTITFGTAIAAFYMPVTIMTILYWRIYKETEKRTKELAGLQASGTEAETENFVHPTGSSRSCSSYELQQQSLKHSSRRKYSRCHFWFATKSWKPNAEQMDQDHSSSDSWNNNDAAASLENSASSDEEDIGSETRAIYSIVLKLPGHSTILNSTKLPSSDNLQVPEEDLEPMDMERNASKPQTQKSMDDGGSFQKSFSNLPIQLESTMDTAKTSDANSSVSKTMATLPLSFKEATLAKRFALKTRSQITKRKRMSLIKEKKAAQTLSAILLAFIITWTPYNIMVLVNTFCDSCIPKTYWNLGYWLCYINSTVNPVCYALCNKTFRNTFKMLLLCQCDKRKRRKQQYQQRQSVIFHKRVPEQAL
Sequence of muscarinic M3 receptors (Homo sapiens, UniProt P20309) (P20309 whole entry): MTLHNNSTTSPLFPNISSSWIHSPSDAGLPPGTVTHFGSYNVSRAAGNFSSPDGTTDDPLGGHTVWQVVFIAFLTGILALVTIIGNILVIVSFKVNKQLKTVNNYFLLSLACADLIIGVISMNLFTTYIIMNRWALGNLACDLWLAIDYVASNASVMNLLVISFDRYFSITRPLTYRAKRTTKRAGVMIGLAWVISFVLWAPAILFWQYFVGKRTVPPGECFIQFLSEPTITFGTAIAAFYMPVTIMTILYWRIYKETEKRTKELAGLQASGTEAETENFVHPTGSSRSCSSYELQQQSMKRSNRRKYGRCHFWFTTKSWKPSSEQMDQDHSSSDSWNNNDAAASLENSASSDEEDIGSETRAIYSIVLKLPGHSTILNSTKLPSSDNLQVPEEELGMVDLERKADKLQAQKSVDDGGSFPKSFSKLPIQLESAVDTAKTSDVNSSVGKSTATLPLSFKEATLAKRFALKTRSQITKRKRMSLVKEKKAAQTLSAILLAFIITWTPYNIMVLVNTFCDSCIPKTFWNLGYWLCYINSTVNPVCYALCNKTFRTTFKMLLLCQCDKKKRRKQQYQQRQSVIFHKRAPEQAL

SMILES | Change from Impurity Amt. before Storage (%), Condition 3 [2] | Change from Impurity Amt. before Storage (%), Condition 2 [2] | Change from Impurity Amt. before Storage (%), Condition 1 [2] | Impurities before Storage (%) [2] | Impurities (%) [3, 9] | Impurities (%) [3, 10] | Impurities (%) [3, 11] | Impurities (%) [3, 12] | Impurities (%) [3, 13] | Impurities (%) [3, 14] | Impurities (%) [3, 15] | Impurities (%) [3, 16] | Impurities (%) [3, 17] | Impurities (%) [3, 18] | Impurities (%) [3, 19] | Impurities (%) [3, 20] | Impurities (%) [3, 21] | Impurities (%) [3, 22] | Impurities (%) [3, 23] | other results
Cl.O=C(O[C@H]1CN2CCC1CC2)N1CCc2ccccc2[C@@H]1c1ccccc1 [Reference Example 2, Compound A hydrochloride, reference compound] | 2.0% | 3.8% | 0.2% | 0.1% | 0.21% | 0.18% | 0.25% | 8.19% | 9.20% | 8.72% | 0.22% | 0.24% | 0.34% | 0.39% | 0.47% | 0.43% | 2.38% | 3.68% | 1.73% | Deliquescence during water absorption measurement ([1]; 25° C., hydrochloride): deliquescent; Deliquescence during water absorption measurement [1, 8]: accompanied by deliquescence; Relative humidity at which rapid moisture uptake began ([1]; 25° C., FIG. 1): about 65 % relative humidity; Weight Change (%) ([1]; 25° C., hydrochloride): > 35%; Weight Change (%) [1, 8]: exceeded 35%; Weight gain by absorption of moisture ([1]; at 75% or more relative humidity): ≥ 15%; Stability to humidity ([2]; Condition 2 in Test Example 2 and Condition 2 in Test Example 3): not so stable to humidity; Stability to light ([2]; Condition 3 in Test Example 2 and Condition 5 in Test Example 3): not so stable; Increase of impurities during storage ([2]; Table 2 and Table 3): impurities increased during storage; Impurities during long-term storage ([4]; long-term storage): increase of impurities during long-term storage; Hygroscopicity in a conventional environment ([4]; relative humidity of 70% (room temperature)): so hygroscopic as to deliquesce
O=C(O[C@H]1CN2CCC1CC2)N1CCc2ccccc2[C@H]1c1ccccc1 [Compound A, (−)-(3R)-quinuclidin-3-yl(1R)-1-phenyl-1,2,3,4-tetrahydroisoquinoline-2-carboxylate] |  |  |  |  |  |  |  |  |  |  |  |  |  |  |  |  |  |  |  | Affinity and selectivity for muscarinic M3 receptors [5]: displays an affinity and selectivity for muscarinic M3 receptors
O=C(O[C@H]1CN2CCC1CC2)N1CCc2ccccc2[C@H]1c1ccccc1 [Example 1, (−)-(3R)-quinuclidin-3-yl(1R)-1-phenyl-1,2,3,4-tetrahydroisoquinoline-2-carboxylate (−)-(2S,3S)-tartrate] | −0.3% | −0.1% | 0.2% | 1.5% | 0.00% | 0.00% | 0.00% | 0.00% | 0.00% | 0.00% | 0.00% | 0.00% | 0.00% | 0.00% | 0.00% | 0.00% | 0.00% | 0.00% | 0.00% | Weight Change (%) ([1]; 25° C.): <1%; IC50 ([6]; IC50 (ng/mL), inhibition of carbachol-induced Ca2+ increase, guinea pig bladder smooth muscle cells, Fura2): 6.62 nM; Ki ([6]; Ki (nM), IC50 converted by Cheng-Prusoff equation based on EC50 of carbachol): 0.68 ± 0.21 nM; ID50 (dose required for 50% inhibition of bladder contraction) [7]: 0.079 mg/kg
